In test [1] the target is T1, cloned human H3 receptor, stably expressed in SK-N-MC cells (Homo sapiens, UniProt Q9Y5N1).
T1 construct: expressed in transfected cells
The test is described as follows: H3 receptor binding (N-[3H]-α-methylhistamine displacement). The note with it: SK-N-MC membranes, 0.8 nM N-[3H]-α-methylhistamine.

The target in test [2] is T2, human H3 receptor (SK-N-MC cells) (Homo sapiens, UniProt Q9Y5N1).
T2 construct: expressed in transfected cells; host or cells: SK-N-MC sublines with CRE-beta-galactosidase reporter
T2 sequence (Q9Y5N1 whole entry): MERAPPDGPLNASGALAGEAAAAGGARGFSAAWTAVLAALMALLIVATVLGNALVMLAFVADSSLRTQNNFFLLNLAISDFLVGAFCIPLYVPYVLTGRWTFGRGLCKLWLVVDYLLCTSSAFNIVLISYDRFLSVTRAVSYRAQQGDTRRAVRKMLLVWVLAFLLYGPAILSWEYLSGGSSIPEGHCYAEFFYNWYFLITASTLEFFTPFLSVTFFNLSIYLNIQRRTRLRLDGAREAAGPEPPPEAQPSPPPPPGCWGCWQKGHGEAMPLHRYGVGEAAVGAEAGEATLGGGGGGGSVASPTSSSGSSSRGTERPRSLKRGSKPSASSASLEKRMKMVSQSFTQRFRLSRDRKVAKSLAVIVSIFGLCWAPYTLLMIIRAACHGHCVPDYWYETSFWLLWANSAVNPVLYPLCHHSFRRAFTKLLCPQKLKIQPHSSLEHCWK
The test is described as follows: Cyclic AMP accumulation (β-galactosidase reporter, Schild analysis vs histamine). Type of test: cell-based.
Experimental: The reporter gene (β-galactosidase) is under the control of multiple cyclic AMP responsive elements. In 96-well plates, histamine was added directly to the cell media followed 5 min later by an addition of forskolin (5 μM final concentration). When appropriate, antagonists were added 10 min prior to agonist addition. After a 6-h incubation at 37° C., the media was aspirated and the cells washed with 200 μL of phosphate-buffered saline followed by a second aspiration. Cells were lysed with 25 μL 0.1× assay buffer (10 mM Na-phosphate, pH 8, 0.2 mM MgSO4, 0.01 mM MnCl2) and incubated at rt for 10 min. Cells were then incubated for 10 min with 100 μL of 1× assay buffer containing 0.5% Triton and 40 mM β-mercaptoethanol. Color was developed using 25 μL of 1 mg/mL substrate solution (chlorophenolred β-D galactopyranoside; Roche Molecular Biochemicals, Indianapolis, Ind.).

Test [3] addresses T3, human SERT (HEK293 membranes) (Homo sapiens, UniProt P31645).
T3 construct: purchased Perkin-Elmer; host or cells: HEK293 membranes
The test is described as follows: Human SERT binding (3H-citalopram displacement).
Experimental: Nonspecific binding was determined in the presence of 10 μM fluoxetine for the SERT. The membranes were washed and the radioactivity was counted as above.

The next test has as its target T4, Rat SERT (Rattus norvegicus, UniProt P31652).
T4 construct: A rat brain without cerebellum (Zivic Laboratories, Inc.—Pittsburgh, Pa.) was homogenized; tissue Zivic Laboratories, Inc; host or cells: rat brain without cerebellum, membranes
The test is described as follows: Rat brain SERT binding ([3H]-Citalopram displacement).

Test [4] concerns synaptic reuptake of 5-HT. The test is described as follows: 5-HTP potentiation test (head twitches). It is filed as in vivo. The note with it: mice, 5 min interval, carbidopa 10 mg/kg + 5-HTP 40 mg/kg, average ± s.e.m.
For test [5], the system named is serotonin and dopamine levels in the cortex. The test is described as follows: Microdialysis of serotonin and dopamine in cortex. The note with it: cortex of freely moving rats, 1 mg/kg subcutaneous, FIG. 1. It is filed as in vivo. The text has this: Microdialysis is used to measure the concentration of small biological molecules in the extracellular fluid of the brain (Parent, M. et al. Methods 2001, 23, 11-20). A small probe, containing a fine microdialysis membrane at its tip, is introduced into the brain of an animal. A buffered solution is infused through the catheter. Small molecules, such as monoamine neurotransmitters, diffuse through the pores in the microdialysis membrane and are captured in the solution. The samples are then analyzed by analytical techniques to quantitate the amount of neurotransmitter in the brain extracellular fluid. This technique has been used extensively to measure the effects of SERT inhibitors on levels of extracellular serotonin.
Microdialysis was used to measure the levels of serotonin and dopamine in the brain of freely moving rats after subcutaneous injection of Example 8A. […] Results are represented as the average ±s.d. of n=2-4 rats.

The subject of another test is H3 receptor. The note with it: 60 min, average ± s.e.m.
[6] abbreviates: rat brain membranes, 0.6 nM [3H]-Citalopram, read-out: Rat SERT Ki.

Molecules are shown by their SMILES. Where two headings read alike, the source gives them in different places.

T3 sequence (P31645 whole entry): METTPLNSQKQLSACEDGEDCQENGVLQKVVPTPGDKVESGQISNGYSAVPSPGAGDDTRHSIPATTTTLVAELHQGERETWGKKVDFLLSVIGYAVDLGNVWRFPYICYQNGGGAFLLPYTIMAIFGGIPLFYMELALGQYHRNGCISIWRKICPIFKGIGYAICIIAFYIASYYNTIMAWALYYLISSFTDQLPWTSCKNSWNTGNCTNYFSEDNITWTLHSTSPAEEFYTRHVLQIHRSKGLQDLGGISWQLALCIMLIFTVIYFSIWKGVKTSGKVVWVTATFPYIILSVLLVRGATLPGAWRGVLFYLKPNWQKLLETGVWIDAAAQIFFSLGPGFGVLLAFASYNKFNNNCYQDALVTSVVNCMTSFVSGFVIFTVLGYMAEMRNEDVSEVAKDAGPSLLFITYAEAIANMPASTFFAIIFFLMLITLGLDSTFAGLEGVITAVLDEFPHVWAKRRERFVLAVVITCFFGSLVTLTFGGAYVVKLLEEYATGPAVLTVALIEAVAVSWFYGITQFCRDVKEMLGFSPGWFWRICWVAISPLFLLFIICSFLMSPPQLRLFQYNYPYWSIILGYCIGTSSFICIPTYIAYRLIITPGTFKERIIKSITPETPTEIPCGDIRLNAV
T4 sequence (P31652 whole entry): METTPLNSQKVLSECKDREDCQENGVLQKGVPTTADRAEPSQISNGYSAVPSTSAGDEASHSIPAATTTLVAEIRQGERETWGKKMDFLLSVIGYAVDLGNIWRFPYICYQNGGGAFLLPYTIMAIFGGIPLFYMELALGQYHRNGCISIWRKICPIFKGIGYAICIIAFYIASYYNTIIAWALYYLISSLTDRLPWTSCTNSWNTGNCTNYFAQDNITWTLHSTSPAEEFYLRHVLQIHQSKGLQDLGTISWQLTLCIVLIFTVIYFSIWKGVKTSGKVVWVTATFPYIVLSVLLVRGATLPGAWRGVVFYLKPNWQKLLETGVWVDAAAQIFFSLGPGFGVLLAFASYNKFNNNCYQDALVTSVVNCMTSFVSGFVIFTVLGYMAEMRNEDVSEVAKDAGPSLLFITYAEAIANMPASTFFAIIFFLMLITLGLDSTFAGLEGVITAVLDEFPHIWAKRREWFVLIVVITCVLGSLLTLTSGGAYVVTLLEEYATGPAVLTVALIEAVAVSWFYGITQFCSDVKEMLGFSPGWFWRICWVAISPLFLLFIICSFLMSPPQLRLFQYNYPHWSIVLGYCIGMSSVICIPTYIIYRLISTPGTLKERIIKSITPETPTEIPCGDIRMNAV
T1 sequence (Q9Y5N1 whole entry): as the sequence (Q9Y5N1 whole entry) above

For orientation: Ki means a dissociation constant, usually derived from enzyme kinetics or from competition with a known ligand. As for `c1ccc([C@H]2CN3CCC[C@H]3c3cc(OCCCN4CCCCC4)ccc32)cc1` (relative stereo) [Example 1A, Cis-6-Phenyl-9-(3-piperidin-1-yl-propoxy)-1,2,3,5,6,10b-hexahydro-pyrrolo[2,1a]isoquinoline], the Ki in test [1] was determined as 0.9 nM; in test [3], 4 nM; at Rat SERT (setting [6]), 2 nM. The Kb in test [2] (read-out: H3 pA2 (converted)) was 0.2 nM.

As for `COc1ccc([C@H]2CN3CCC[C@H]3c3cc(OCCCN4CCCCC4)ccc32)cc1` (relative stereo) [Example 8A, Cis-6-(4-Methoxy-phenyl)-9-(3-piperidin-1-yl-propoxy)-1,2,3,5,6,10b-hexahydro-pyrrolo[2,1-a]isoquinoline], the head twitch frequency is on record as 6.0 ± 1.2 (3) in test [4] (3 mg/kg, Group 1 (1 h)); 24.0 ± 2.1 (4) in test [4] (3 mg/kg, Group 2 (24 h)); 2.0 ± 0.6 (3) in test [4] (10 mg/kg, Group 1 (1 h)); 41.3 ± 5.2 (3) in test [4] (10 mg/kg, Group 2 (24 h)). In test [5], the “dopamine (DA) levels by microdialysis” value is on record as “slow, persistent increase”. The “serotonin (5-HT) levels by microdialysis” value in test [5] was “slow, persistent increase”. The “Water Consumed” value in the test on H3 receptor (Example 8A (1 mg/kg) i.p. + Imetit (1 mg/kg) after 24 h) was 1.99 ± 0.68 mL; with H3 receptor (Example 8A (3 mg/kg) i.p. + Imetit (1 mg/kg) after 24 h), 1.65 ± 0.51 mL; in the test with H3 receptor (Example 8A (10 mg/kg) i.p. + Imetit (1 mg/kg) after 24 h, p = 0.022 compared to imetit-treated animals), “*0.25 ± 0.15 mL”.

With `Oc1ccc([C@H]2CN3CCC[C@H]3c3cc(OCCCN4CCCCC4)ccc32)cc1` (relative stereo) [Example 9A], the Ki in test [1] stood at 2 nM; in test [3] it was 58 nM; on Rat SERT (setting [6]), 9 nM. Moreover, the Kb in test [2] (read-out: H3 pA2 (converted)) was 0.316 nM.

As for `COc1cccc([C@H]2CN3CCC[C@H]3c3cc(OCCCN4CCCCC4)ccc32)c1` (relative stereo) [Example 10A, Cis-6-(3-Methoxy-phenyl)-9-(3-piperidin-1-yl-propoxy)-1,2,3,5,6,10b-hexahydro-pyrrolo[2,1-a]isoquinoline], the Ki in test [1] came out at 2 nM; in test [3], 2 nM; at Rat SERT (setting [6]), 5 nM. Also, the Kb in test [2] (read-out: H3 pA2 (converted)) is 0.158 nM.

Turning to `Clc1cccc([C@@H]2CN3CCC[C@H]3c3cc(OCCCN4CCCCC4)ccc32)c1` (relative stereo) [Example 11A, Cis-6-(3-Chloro-phenyl)-9-(3-piperidin-1-yl-propoxy)-1,2,3,5,6,10b-hexahydro-pyrrolo[2,1-a]isoquinoline], the Ki in test [1] was 1 nM; in test [3], 0.6 nM; at Rat SERT (setting [6]) it was 4 nM. The Kb in test [2] (read-out: H3 pA2 (converted)) is 0.316 nM.

For `FC(F)(F)Oc1ccc([C@H]2CN3CCC[C@H]3c3cc(OCCCN4CCCCC4)ccc32)cc1` (relative stereo) [Example 17], the Ki in test [1] is 4 nM; in test [3], 7 nM; at Rat SERT (setting [6]), 11 nM. Besides, in test [2] (read-out: H3 pA2 (converted)), the Kb is 6.31 nM.

Consider `COc1ccc([C@H]2CN3CCC[C@H]3c3cc(OC4CCN(C(C)C)CC4)ccc32)cc1` (relative stereo) [Example 28], for which the results for the Ki (in test [1]; in test [3]; on Rat SERT (setting [6])) were 0.4 nM, 5 nM and 4 nM, respectively.

In the case of `CN(C)c1ccc([C@H]2CN3CCC[C@H]3c3cc(OCCCN4CCCCC4)ccc32)cc1` (relative stereo) [Example 30], the Ki stood at 2 nM in test [1], 2 nM in test [3] and 3 nM on Rat SERT (setting [6]).

`C[Si](C)(C)C#Cc1ccc([C@H]2CN3CCC[C@H]3c3cc(OCCCN4CCCCC4)ccc32)cc1` (relative stereo) [Example 36]: the figures for the Ki (in test [1]; at Rat SERT) were 4 nM and 15 nM, respectively. The same compound gave a Kb in test [2] of 10 nM.

With `N#Cc1ccc([C@@H]2CN3CCC[C@H]3c3cc(OCCCN4CCCCC4)ccc32)cc1` (relative stereo) [Example 41A, Cis-4-[9-(3-Piperidin-1-yl-propoxy)-1,2,3,5,6,10b-hexahydro-pyrrolo[2,1-a]isoquinolin-6-yl]-benzonitrile], the values for the Ki (in test [1]; in test [3]; on Rat SERT (setting [6])) were 1 nM, 59 nM and 25 nM, respectively. For the same compound, the Kb in test [2] (read-out: H3 pA2 (converted)) was 0.794 nM.

With `N#Cc1ccc([C@H]2CN3CCC[C@H]3c3cc(OCCCN4CCCCC4)ccc32)cc1` (relative stereo) [Example 41B, Trans-4-[9-(3-Piperidin-1-yl-propoxy)-1,2,3,5,6,10b-hexahydro-pyrrolo[2,1-a]isoquinolin-6-yl]-benzonitrile], the figures for the Ki (in test [1]; at Rat SERT (setting [6])) were 1 nM and 6 nM, respectively. Also, the Kb in test [2] (read-out: H3 pA2 (converted)) is 0.794 nM.

On to `FC(F)(F)c1cccc([C@H]2CN3CCC[C@H]3c3cc(OCCCN4CCCCC4)ccc32)c1` (relative stereo) [Example 67], for which the Ki is 2 nM in test [1], 9 nM in test [3] and 22 nM on Rat SERT (setting [6]). Moreover, in test [2] (read-out: H3 pA2 (converted)), the Kb is 0.501 nM.

As to `COc1ccc([C@H]2CN3CCC[C@H]3c3cc(OCCCN4CCOC[C@@H]4C)ccc32)cc1` [Example 46, Cis-6-(4-Methoxy-phenyl)-9-[3-(3S-methyl-morpholin-4-yl)-propoxy]-1,2,3,5,6,10b-hexahydro-pyrrolo[2,1-a]isoquinoline], the values for the Ki (in test [1]; in test [3]; at Rat SERT (setting [6])) were 4 nM, 9 nM and 14 nM, respectively.

For `COc1ccc([C@@H]2CN3CCC[C@@H]3c3cc(OCCCN4CCOCC4)ccc32)cc1` [Example 92, (1R,6S)-6-(4-Methoxy-phenyl)-9-(3-morpholin-4-yl-propoxy)-1,2,3,5,6,10b-hexahydro-pyrrolo[2,1-a]isoquinoline], the Ki in test [1] was determined as 16 nM; in test [3] it was 4 nM; at Rat SERT (setting [6]), 2.2 nM. Moreover, the Kb in test [2] (read-out: H3 pA2 (converted)) was 15.8 nM.

Take `COc1ccc([C@H]2CN3CCC[C@@H]3c3cc(OCCCN4CCOCC4)ccc32)cc1` [Example 94, (1R,6R)-6-(4-Methoxy-phenyl)-9-(3-morpholin-4-yl-propoxy)-1,2,3,5,6,10b-hexahydro-pyrrolo[2,1-a]isoquinoline]: the values for the Ki (in test [1]; in test [3]; on Rat SERT (setting [6])) were 4 nM, 111 nM and 53 nM, respectively.

As for `COc1ccc([C@@H]2CN3CCC[C@H]3c3cc(OCCCN4CCOCC4)ccc32)cc1` [Example 95, (1S,6S)-6-(4-Methoxy-phenyl)-9-(3-morpholin-4-yl-propoxy)-1,2,3,5,6,10b-hexahydro-pyrrolo[2,1-a]isoquinoline], the inhibitory constant (Ki) in test [1] was determined as 6 nM; in test [3] it was 13 nM; on Rat SERT (setting [6]), 11 nM.

These data come from patent US8273762B2, “Hexahydro-pyrrolo-isoquinoline compounds” (Janssen Pharmaceutica NV, priority 2005, dated 2012).
